Results reported in patent publication US20240423952A1, “COMPOSITIONS AND METHODS FOR TREATING CONGENITAL DISORDERS” (Ibagen Pharmaceuticals, Inc., priority 2021, published 2024).
Where “and” joins values, the source holds several entries; their conditions need not be identical. Equal values may be shown once. Where a name gives a salt, the structure may show the parent alone.

What was measured:
N2 non-transgenic worms = assay: Screen of putative NALCN antagonists by motor behavior, N2 control worms on compound agar; format: in vivo, C. elegans
Procedure: (§1) Compounds were dissolved in the vehicle in which they were the most soluble (DMSO or molecular grade water). […] Microwave to dissolve (note: this will boil over rapidly). The screen is performed in a 24-well flat-bottom plate. […] Proceed to next step quickly. […] Immediately begin mixing with pipette tip until the compound dissolves (at this point the mixture should be clear). Fill the remainder of the plate (I usually prepare duplicate wells for each compound) and cover with aluminum foil to protect the compounds from light. Leave at room temperature overnight to allow the plate to dry before screening. […] Prepare at least 4 small plates for each line. […] Pick a line to start with. […] Start timing as soon as a well has been filled. […] Touch the tail of each worm gently with a platinum wire to promote motion. Record any observations. (I like to record the proportion of worms that retain the original phenotype, the proportion that show full body paralysis/death, and the proportion that show paralysis of the neck only).

[1] = test system: EG9152 GOF worms (C. elegans NALCN(gf) model); assay: Screen of putative NALCN antagonists by motor behavior, GOF worms on compound agar; format: in vivo
Procedure: as §1

Outward K+ currents = assay: Electrophysiology tests, whole-cell recording of E16 embryonic cortical neurons; format: cell-based; settings: mouse E16 cortical neurons, ramp −60~+80 mV, quantified at +80 mV (figure legends)
Procedure: Briefly, the cerebral cortex was isolated from embryos of E16 pregnant mouse (C57/BL6) and cut into small cubes. After being digested in 0.05% Trypsin for 25-30 mins in 37° C. in incubator, the Trypsin was neutralized with 1-2 ml DMEM (containing 10% FBS. The pellets were then triturated with a pipette for 10-15 time and then diluted into plating media (DMEM with 10% FBS). The cell suspension was sieved through a […] nylon filter and plated onto cover slips coated with poly-D-lysine (PDL) in 35 mm dishes at density of 2×10^5 cells per dish. After culturing for 2 hrs in incubator, the plating media was replaced with the following media: Neurobasal media supplemented with 2% B27. Neurobasal media was changed every 3 days until the experiment start.
Membrane potentials of neurons were recorded in whole-cell configuration at 20° C.-22° C. in a mouse E16 embryonic cortical neuron preparation. The pipette solution contained (in mM): K-Gluconate 115; KCl 25; CaCl2) 0.1; MgCl2 5; BAPTA 1; HEPES 10; Na2ATP 5; Na2GTP 0.5; cAMP 0.5; cGMP 0.5, pH 7.2 with KOH, 320 mOsm. The bath solution consisted of (in mM): NaCl 150; KCl 5; CaCl2) 5; MgCl2 1; glucose 10; sucrose 5; HEPES 15, pH 7.3 with NaOH, 330 mOsm. For zero and 15 Na+ solution, extracellular Na+ ([Na+]o) was replaced with N-methyl-D-glucamine (NMDG+) or Tris+. RMP was recorded at 0 pA. […]

With `CCOC(=O)C1=C(COCCN)NC(C)=C(C(=O)OC)C1c1ccccc1Cl` (centres unmarked) [Amlodipine Besylate, Amlodipine] the “proportion of worms: “rescue” (slight but present)” value (N2 non-transgenic worms; 1.25 mM, 30 mins, Trial 4) was 30 mins: 50%, the “proportion of worms: WT(N2)” value (N2 non-transgenic worms; 1.25 mM, 1 hr, Trial 4) was 10% WT(N2) and the “proportion of worms: rescue” value (N2 non-transgenic worms; 1.25 mM, 1 hr, Trial 4) was 1 hr: 90% rescue,. For the same compound, the “proportion of worms: GOF” value ([1]; 1.25 mM, 30 mins, Trial 4) was “rescue, 36% GOF”, the “proportion of worms: rescue” value ([1]; 1.25 mM, 30 mins, Trial 4) was 30 mins: 64% and the “proportion of worms: GOF” value ([1]; 1.25 mM, 1 hr, Trial 4) was 27%. For the same compound, the “proportion of worms: LOF” value ([1]; 1.25 mM, 1 hr, Trial 4) was 9%, the “proportion of worms: rescue” value ([1]; 1.25 mM, 1 hr, Trial 4) was 1 hr: 64% rescue, and the “effect on Outward K+ currents” value (Outward K+ currents) was “blocked”.

`COc1cc2c3cc1Oc1c(OC)c(OC)cc4c1[C@@H](Cc1ccc(O)c(c1)Oc1ccc(cc1)C[C@@H]3N(C)CC2)N(C)CC4` [Berbamine dihydrochloride, Berbamine] was tested, and the response (N2 non-transgenic worms; 4.4 mM, 30 min, Trial 1) was 30 min: No, the “proportion of worms: “rescue”” value (N2 non-transgenic worms; 4.4 mM, 30 min, Trials 2-3) was 30 min: 70% and 30 min: 30% and the “phenotype proportions at 1 hr compared with 30 min” value (N2 non-transgenic worms; 4.4 mM, 1 hr, Trial 3) was 1 hr: no change. For the same compound, the “proportion of worms: LOF” value ([1]; 4.4 mM, 30 min, Trial 3) was “GOF, 25% LOF”, the “proportion of worms: rescue” value ([1]; 4.4 mM, 30 min, Trials 1-3) was 30 min: 20% and 30 min: 70% and 30 min: 33% and the “proportion of worms: rescue” value ([1]; 4.4 mM, 1 hr, Trial 1) was 1 hr: 50-60%. For the same compound, the “phenotype proportions at 1 hr compared with 30 min” value ([1]; 4.4 mM, 1 hr, Trials 2-3) was 1 hr: no change.

In the case of `CN1CCOC(c2ccccc2)c2ccccc2C1` (centres unmarked) [Nefopam], the “proportion of worms: “rescue”” value (N2 non-transgenic worms; 3.3 mM, 20 min, Trials 3-4) is reported as 20 min: 15% and 20 min: 7%, the “proportion of worms: “rescue”” value (N2 non-transgenic worms; 6.65 mM, 20 min, Trials 1-2) is reported as 20 min: 9% and 20 min: 23% and the “proportion of worms: LOF” value (N2 non-transgenic worms; 6.65 mM, 50 min, Trials 1-2) is reported as 50 min: 100%. The “proportion of worms: LOF” value ([1]; 3.3 mM, 20 min, Trial 3) was “rescue, 30%”, the “proportion of worms: GOF” value ([1]; 3.3 mM, 20 min, Trial 4) was “rescue, 31% GOF” and the “proportion of worms: rescue” value ([1]; 3.3 mM, 20 min, Trials 3-4) was 20 min: 70% and 20 min: 69%. For the same compound, the “proportion of worms: GOF” value ([1]; 3.3 mM, 40 min, Trial 3) was “rescue, 8% GOF,”, the “proportion of worms: LOF” value ([1]; 3.3 mM, 40 min, Trial 3) was 67% LOF and the “proportion of worms: rescue” value ([1]; 3.3 mM, 40 min, Trials 3-4 (Trial 4: sluggish)) was 40 min: 100% and 40 min: 25%. For the same compound, the “proportion of worms: rescue” value ([1]; 6.65 mM, 20 min, Trials 1-2) was 20 min: 33% and 20 min: 90%, the “proportion of worms: rescue” value ([1]; 6.65 mM, 50 min, Trial 2) was 50 min: 60% and the “effect on Outward K+ currents” value (Outward K+ currents) was “blocked”.

In the case of `CCOC(=O)c1ccc(N)cc1` [Benzocaine], the “proportion of worms: N2” value (N2 non-transgenic worms; 2.4 mM, 20 min, Trials 3-4) is reported as 20 min: 28% N2, and 20 min: 27% N2,, the “proportion of worms: sluggish N2” value (N2 non-transgenic worms; 4.71 mM, 30 min, Trial 2) is reported as 30 min: 18% and the “proportion of worms: LOF” value (N2 non-transgenic worms; 4.71 mM, 1 hr, Trials 1-2) is reported as 1 hr: 100%. For the same compound, the “proportion of worms: rescue” value ([1]; 2.4 mM, 20 min, Trials 3-4) was 20 min: 40% and 20 min: 33%, the “proportion of worms: rescue” value ([1]; 2.4 mM, 40 min, Trials 3-4) was 40 min: 8% and 40 min: 11% and the “Rescue worms still move fairly ...” value ([1]; 4.71 mM, 30 min, Trial 1) was “quickly”. For the same compound, the “amplitude of body bends overall” value ([1]; 4.71 mM, 30 min, Trial 1) was “Reduced”, the “proportion of worms: rescue” value ([1]; 4.71 mM, 30 min, Trials 1-2) was 30 min: 38% and 30 min: 8% and the “proportion of worms: LOF” value ([1]; 4.71 mM, 1 hr, Trials 1-2) was 1 hr: 100%. The “paralysis of neck and reduced body bend amplitude but not as obvious a phenotype as Verapamil” value ([1]; remark for the trials at 4.71 mM and 2.4 mM) was “Show”.
